This passage reports IC50 results from US12116358B2, “Substituted indoles and methods of use thereof” (EPIZYME, INC., priority 2018, dated 2024).

A value given as a limit tells only on which side of the number the result lay.

For the assay, the target named is T1, SETD2(1434-1711) (Homo sapiens, UniProt Q9BYW2).
T1 construct: SETD2 (1434-1711) Assay; catalogue N/A
T1 sequence (Q9BYW2 1434-1711): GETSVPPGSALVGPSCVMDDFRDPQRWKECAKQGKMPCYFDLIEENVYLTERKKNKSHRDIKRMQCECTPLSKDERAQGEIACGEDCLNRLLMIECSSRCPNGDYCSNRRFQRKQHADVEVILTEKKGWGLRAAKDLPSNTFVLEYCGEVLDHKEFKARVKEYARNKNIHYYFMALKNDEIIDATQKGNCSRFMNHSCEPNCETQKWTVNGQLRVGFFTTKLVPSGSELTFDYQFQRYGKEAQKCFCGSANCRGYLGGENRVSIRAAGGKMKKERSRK
In words: SETD2 (1434-1711) assay. It counts as biochemical. The note with it: read-out: SETD2 (1434-1711).
For the compound `Cc1cccc2cc(C(=O)NC3CCCN(c4ncccn4)C3)[nH]c12` (stereo not drawn) [compound 626], the IC50 stood at 12.5 µM.
The same measure for `NCCC(=O)N[C@H]1CC[C@H](NC(=O)c2cc3cccc(Cl)c3[nH]2)CC1` [compound 697]: 62.8 µM; for `Cc1cccc2cc(C(=O)Nc3ccc(CN4CCOCC4)cc3)[nH]c12` [compound 691]: 56.2 µM.
Turning to `Cc1cccc2cc(C(=O)NC3CCC(c4ccccc4)NC(=O)C3)[nH]c12` (stereo not drawn) [compound 816], the IC50 is over 200 µM.
As for `Cc1ccc(F)c2cc(C(=O)N[C@@H]3CCC[C@@H](N4CCN(CC(F)(F)F)CC4)C3)[nH]c12` [compound 827], the figure is 7.6 µM; as for `COC(=O)C(NC(=O)c1cc2cccc(C)c2[nH]1)c1ccccc1` (stereo not drawn) [compound 701], 69.2 µM.
As to `Cc1cccc2cc(C(=O)NCc3ccccc3N(C)C)[nH]c12` [compound 638], the IC50 turned out to be 18.1 µM.
The same measure for `Cc1cccc2cc(C(=O)N[C@H](c3ccccc3)C(F)(F)F)[nH]c12` [compound 726]: 124 µM.
The same measure for `Cc1cccc2cc(C(=O)NC3CCc4ccccc43)[nH]c12` (stereo not drawn) [compound 748]: over 200 µM; for `Cc1cccnc1C(NC(=O)c1cc2cccc(C(F)(F)F)c2[nH]1)C1CC1` (stereo not drawn) [compound 717]: over 100 µM; for `Cc1cccc2cc(C(=O)NC(c3ncccc3Cc3ccccc3)C3CC3)[nH]c12` (stereo not drawn) [compound 817]: over 200 µM.
With `Cc1cccnc1C(NC(=O)c1cc2cccc(C(C)C)c2[nH]1)C1CC1` (stereo not drawn) [compound 802], the IC50 is over 200 µM.
`Cc1cccc2cc(C(=O)NCc3cn4ccnc4cn3)[nH]c12` [compound 710]: the IC50 is 83.4 µM.
The same measure for `Cc1c(CN2CCOCC2)cccc1NC(=O)c1cc2cccc(C)c2[nH]1` [compound 624]: 10.9 µM.
`Cc1cccc2cc(C(=O)Nc3cncnc3)[nH]c12` [compound 665]: the IC50 stood at 32.7 µM.
The same measure for `Cc1cccnc1C(CCN(C)C)NC(=O)c1cc2cccc(C)c2[nH]1` (stereo not drawn) [compound 728]: 127 µM; for `Cc1cccc2cc(C(=O)NC(c3cncc(CN(C)C)c3)C3CC3)[nH]c12` (stereo not drawn) [compound 727]: 125 µM.
Take `Cc1cccc2cc(C(=O)NC(C)c3ccn(C)n3)[nH]c12` (stereo not drawn) [compound 712]: the IC50 came to 86.4 µM.
On to `Cc1c(C(=O)N[C@H]2CC[C@H](N)CC2)[nH]c2c(C)cccc12` [compound 736], for which the IC50 stood at 168 µM.
In the case of `Cc1cccc2cc(C(=O)N3CCn4ncnc4C3)[nH]c12` [compound 812], the IC50 is over 200 µM.
The same measure for `Cc1cccc2cc(C(=O)NC(c3cccnc3)C3CC3)[nH]c12` (stereo not drawn) [compound 689]: 53.3 µM.
Take `Cc1ccc(F)c2cc(C(=O)N[C@@H]3CCC[C@H](N4CCN(C(=O)C5CC5)CC4)C3)[nH]c12` [compound 830]: the IC50 is 0.04 µM.
The same measure for `Cc1cccc2cc(C(=O)N[C@H]3CC[C@](C)(NC(=O)CCN)CC3)[nH]c12` [compound 629]: 14.5 µM; for `Cc1cccc2cc(C(=O)NC3CCCN(C(=O)CCCN)C3)[nH]c12` (stereo not drawn) [compound 664]: 31.7 µM.
Take `Cc1cccc2cc(C(=O)Nc3cccnc3)[nH]c12` [compound 795]: the IC50 is over 200 µM.
`Cc1cccc2cc(C(=O)NCC(O)c3c(F)cccc3F)[nH]c12` (stereo not drawn) [compound 720]: the IC50 worked out at 109 µM.
For `Cc1cccc2cc(C(=O)NC3CCN(C(=O)CCCN)CC3)[nH]c12` [compound 639], the IC50 was found to be 18.5 µM.
As for `CC(=O)NC1CCN([C@@H]2CCC[C@@H](NC(=O)c3cc4c(F)ccc(C)c4[nH]3)C2)C1` (stereo partly drawn) [compound 834], the figure is 5 µM.
The same measure for `Cc1cccc2cc(C(=O)N[C@H]3CC[C@H](NC(=O)C(F)(F)F)CC3)[nH]c12` [compound 791]: over 200 µM; for `COC(=O)CC(NC(=O)c1cc2cccc(C)c2[nH]1)c1ccccc1Br` (stereo not drawn) [compound 774]: over 200 µM; for `COC(=O)C[C@H](NC(=O)c1cc2cccc(C)c2[nH]1)C(=O)OC` [compound 708]: 74 µM.
The same measure for `Cc1cccc2cc(C(=O)NCc3ncnn3C)[nH]c12` [compound 768]: over 200 µM; for `Cc1cccc([C@@H](C)NC(=O)c2cc3cccc(C)c3[nH]2)c1` [compound 713]: 91.2 µM; for `Cc1cccc2cc(C(=O)NCc3ccccc3Cl)[nH]c12` [compound 1153]: over 200 µM.
For the compound `Cc1cccc2cc(C(=O)N[C@@H]3C[C@H]4CC[C@@H]3CN4C(=O)CCN)[nH]c12` [compound 672], the IC50 was 35.9 µM.
Consider `Cc1cc(C)c2[nH]c(C(=O)N[C@H]3CC[C@H](NC(=O)CCN)CC3)cc2c1` [compound 738], for which the IC50 turned out to be 179 µM.
The same measure for `Cc1cccc2cc(C(=O)NCCc3ccc(Cl)cc3N3CCOCC3)[nH]c12` [compound 653]: over 25 µM; for `Cc1cccc2cc(C(=O)NCC(CN(C)C)c3ccccc3)[nH]c12` (stereo not drawn) [compound 815]: over 200 µM; for `Cc1ccc(F)c2cc(C(=O)NC3C(=O)N(C)CCc4ccccc43)[nH]c12` (stereo not drawn) [compound 390]: 0.5 µM.
With `Cc1cccc2cc(C(=O)NC3CCNCC3)[nH]c12` [compound 715], the IC50 came to 98.9 µM.
Turning to `Cc1cccc2cc(C(=O)Nc3ncc4ccccc4n3)[nH]c12` [compound 804], the IC50 is over 200 µM.
`COC(=O)C[C@@H](NC(=O)c1cc2cccc(C)c2[nH]1)C(=O)OC` [compound 694]: the IC50 was 62.1 µM.
For `Cc1cccc2cc(C(=O)N3CCCC3C(N)=O)[nH]c12` (stereo not drawn) [compound 786], the IC50 is over 200 µM.
The same measure for `Cc1cccc2cc(C(=O)NCc3ccccc3N3CCCCC3)[nH]c12` [compound 716]: over 100 µM; for `Cc1cccc2cc(C(=O)N[C@@H](c3ccccc3)C(F)(F)F)[nH]c12` [compound 687]: 51.6 µM.
Take `Cc1cccc2cc(C(=O)NC(c3ncccn3)C3CC3)[nH]c12` (stereo not drawn) [compound 680]: the IC50 came out at 44.8 µM.
As for `Cc1cccc2cc(C(=O)NC3C4CCC3CC(NC(=O)CCN)C4)[nH]c12` (stereo not drawn) [compound 685], the IC50 is 50.5 µM.
The same measure for `CCOC(=O)C(CC1CCC1)NC(=O)c1cc2cccc(C)c2[nH]1` (stereo not drawn) [compound 630]: 14.6 µM.
The same measure for `Cc1cccc2cc(C(=O)NCC3CCCO3)[nH]c12` (stereo not drawn) [compound 747]: over 200 µM; for `Cc1cccc2cc(C(=O)NCc3cnc[nH]3)[nH]c12` [compound 729]: 129 µM.
As to `Cc1cccc2cc(C(=O)N3CCC(=O)c4ccccc4C3)[nH]c12` [compound 814], the IC50 is over 200 µM.
As for `Cc1cccc2cc(C(=O)N[C@H]3CC[C@H](C(F)(F)F)CC3)[nH]c12` [compound 780], the figure is over 200 µM; as for `Cc1cccc2cc(C(=O)NC(C3CC3)C(F)(F)F)[nH]c12` (stereo not drawn) [compound 769], over 200 µM; as for `Cc1cccc2cc(C(=O)NC(C)c3cccc(C(F)(F)F)c3)[nH]c12` (stereo not drawn) [compound 790], over 200 µM.
As for `Cc1cccc2cc(C(=O)N3CCCC(NC(=O)CCN)C3)[nH]c12` (stereo not drawn) [compound 798], the figure is over 200 µM; as for `COC(=O)CC(NC(=O)c1cc2cccc(C)c2[nH]1)c1cccs1` (stereo not drawn) [compound 650], over 23 µM.
Take `Cc1cccc2cc(C(=O)NC(c3cccc(CC(N)=O)n3)C3CC3)[nH]c12` (stereo not drawn) [compound 667]: the IC50 is 34.5 µM.
